Source: PubChem BioAssay AID330 (DTP/NCI, 2004)
Where “and” joins values, the source holds several entries; their conditions need not be identical. Identical values can stand only once. Toxic doses and inconclusive results are not listed. How the source made its calls: active means survival T/C of 150% or more; inactive means T/C below 125% in these data.

System: P388 leukemia ip, CD2F1 mice, survival T/C
Test: NCI In Vivo Anticancer Drug Screen. Data for tumor model P388 Leukemia (intraperitoneal) in CD2F1 (CDF1) mice
Details: endpoint: median survival time, higher = longer survival
In short: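 Mice carrying the transplanted tumor received test compound or vehicle. Survival was recorded in each group, and the value is the treated-group measurement divided by that of the vehicle-treated control group.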

[1] = dose: 50.0 mg/kg/injection, schedule: Q01DX009 (ip), vehicle: Klucel (hydroxypropylcellulose) (HPC)
[2] = dose: 100.0 mg/kg/injection, schedule: Q01DX009 (ip), vehicle: Klucel (hydroxypropylcellulose) (HPC)
[3] = dose: 200.0 mg/kg/injection, schedule: Q01DX009 (ip), vehicle: Klucel (hydroxypropylcellulose) (HPC)
[4] = dose: 50.0 mg/kg/injection, schedule: Q01DX005 (ip), vehicle: saline with Tween-80
[5] = dose: 100.0 mg/kg/injection, schedule: Q01DX005 (ip), vehicle: saline with Tween-80
[6] = dose: 200.0 mg/kg/injection, schedule: Q01DX005 (ip), vehicle: saline with Tween-80
[7] = dose: 6.25 mg/kg/injection, schedule: Q01DX009 (ip), vehicle: saline
[8] = dose: 12.5 mg/kg/injection, schedule: Q01DX009 (ip), vehicle: saline
[9] = dose: 25.0 mg/kg/injection, schedule: Q01DX009 (ip), vehicle: saline
[10] = dose: 60.0 mg/kg/injection, schedule: Q01DX005 (ip), vehicle: saline with Tween-80
[11] = dose: 120.0 mg/kg/injection, schedule: Q01DX005 (ip), vehicle: saline with Tween-80
[12] = dose: 240.0 mg/kg/injection, schedule: Q01DX005 (ip), vehicle: saline with Tween-80
[13] = dose: 50.0 mg/kg/injection, schedule: Q01DX005 (ip), vehicle: Klucel (hydroxypropylcellulose) (HPC)
[14] = dose: 100.0 mg/kg/injection, schedule: Q01DX009 (ip), vehicle: saline with Tween-80
[15] = dose: 100.0 mg/kg/injection, schedule: Q01DX005 (ip), vehicle: Klucel (hydroxypropylcellulose) (HPC)
[16] = dose: 200.0 mg/kg/injection, schedule: Q01DX005 (ip), vehicle: Klucel (hydroxypropylcellulose) (HPC)

Measured: T/C

CCCCCCCCCCCCCCCCCOC(=O)CCCCCCCCCCCCC
inactive: dose: 100.0 mg/kg/injection, schedule: Q01DX001 (ip), vehicle: other 100 % of control | dose: 200.0 mg/kg/injection, schedule: Q01DX001 (ip), vehicle: other 95 % of control | dose: 400.0 mg/kg/injection, schedule: Q01DX001 (ip), vehicle: other 90 % of control

NS(=O)(=O)c1cc(Br)ccc1Br
inactive: dose: 100.0 mg/kg/injection, schedule: Q04DX003 (ip), vehicle: saline with Tween-80 99 % of control | dose: 200.0 mg/kg/injection, schedule: Q04DX003 (ip), vehicle: saline with Tween-80 117 % of control | dose: 400.0 mg/kg/injection, schedule: Q04DX003 (ip), vehicle: saline with Tween-80 117 % of control

S=C(Nc1ccc(Cl)c(Cl)c1)N1c2ccccc2-n2cccc2C1c1cccnc1 (stereo not given)
inactive: dose: 25.0 mg/kg/injection, schedule: Q01DX009 (ip), vehicle: Klucel (hydroxypropylcellulose) (HPC) 115 % of control | [1] 113 % of control | [2] 113 % of control | [3] 121 % of control

O=C(CN1C(=O)c2ccccc2C1=O)C(O)CN1C(=O)c2ccccc2C1=O (stereo not given)
inactive: [4] 94 % of control | [5] 94 % of control | [6] 100 % of control

CCOC(=O)C1(N)CCCC1
inactive: [7] 105 % of control and 86 % of control | [8] 100 % of control and 102 % of control | [9] 100 % of control and 96 % of control | dose: 50.0 mg/kg/injection, schedule: Q01DX009 (ip), vehicle: saline 114 % of control and 96 % of control

NC(=O)CCCC(C(N)=O)c1ccccc1 (stereo not given)
inactive: dose: 100.0 mg/kg/injection, schedule: Q01DX001 (ip), vehicle: Klucel (hydroxypropylcellulose) (HPC) 100 % of control | dose: 200.0 mg/kg/injection, schedule: Q01DX001 (ip), vehicle: Klucel (hydroxypropylcellulose) (HPC) 105 % of control | dose: 400.0 mg/kg/injection, schedule: Q01DX001 (ip), vehicle: Klucel (hydroxypropylcellulose) (HPC) 99 % of control

COc1cc(C2C(C)=C(C)Oc3cc4c(cc32)OCO4)cc(OC)c1OC (stereo not given)
inactive: [10] 97 % of control | [11] 91 % of control | [12] 88 % of control

NNC(=O)C1C2c3ccccc3C(c3ccccc32)C1C(=O)NN (stereo not given)
inactive: [10] 99 % of control | [11] 99 % of control | [12] 96 % of control

O=C(Sc1ccc(Cl)cc1)N1CCN(C(=O)Sc2ccc(Cl)cc2)CC1
inactive: [1] 92 % of control | [2] 90 % of control | [3] 94 % of control

Cc1cc(N=Cc2cccs2)cc(Cl)c1O
inactive: dose: 100.0 mg/kg/injection, schedule: Q04DX003 (ip), vehicle: saline 101 % of control | dose: 200.0 mg/kg/injection, schedule: Q04DX003 (ip), vehicle: saline 99 % of control | dose: 400.0 mg/kg/injection, schedule: Q04DX003 (ip), vehicle: saline 98 % of control

CCOC(=O)c1ccc2cc(C)c3ccc(N)nc3n2c1=O
inactive: dose: 25.0 mg/kg/injection, schedule: Q01DX005 (ip), vehicle: saline with Tween-80 93 % of control | [4] 98 % of control | [5] 92 % of control and 93 % of control | [6] 88 % of control

C1=C(N2CCOCC2)N(c2ccccc2)c2ccccc2N=C1N1CCCC1
inactive: dose: 12.5 mg/kg/injection, schedule: Q01DX005 (ip), vehicle: Klucel (hydroxypropylcellulose) (HPC) 100 % of control | dose: 25.0 mg/kg/injection, schedule: Q01DX005 (ip), vehicle: Klucel (hydroxypropylcellulose) (HPC) 91 % of control | [13] 103 % of control and 96 % of control

CCNCc1c(C)[nH]c2ccccc2c1=O
inactive: dose: 3.12 mg/kg/injection, schedule: Q01DX009 (ip), vehicle: saline with Tween-80 100 % of control | dose: 6.25 mg/kg/injection, schedule: Q01DX009 (ip), vehicle: saline with Tween-80 101 % of control | dose: 12.5 mg/kg/injection, schedule: Q01DX009 (ip), vehicle: saline with Tween-80 102 % of control | dose: 25.0 mg/kg/injection, schedule: Q01DX009 (ip), vehicle: saline with Tween-80 105 % of control | [14] 91 % of control

O=C1CC2(CCCCC2)CC(=O)N1c1ccc(O)c(CN(Cc2ccccc2)Cc2ccccc2)c1
inactive: dose: 100.0 mg/kg/injection, schedule: Q04DX003 (ip), vehicle: Klucel (hydroxypropylcellulose) (HPC) 90 % of control | dose: 200.0 mg/kg/injection, schedule: Q04DX003 (ip), vehicle: Klucel (hydroxypropylcellulose) (HPC) 92 % of control | dose: 400.0 mg/kg/injection, schedule: Q04DX003 (ip), vehicle: Klucel (hydroxypropylcellulose) (HPC) 93 % of control

O=C1CSC(c2ccccc2Br)N1c1nncs1 (stereo not given)
inactive: [10] 101 % of control | [11] 97 % of control | [12] 93 % of control

COc1ccc(Cc2cc(N=O)c(OC)cc2O)cc1
inactive: [4] 90 % of control | [5] 87 % of control

O=C1c2ccccc2C(=O)C1C(=Nc1ccc(F)cc1)c1ccccc1
inactive: [13] 103 % of control | [15] 103 % of control | [16] 99 % of control

COC(=O)c1c(C(=O)OC)c(-c2ccccc2)n(CCn2c(-c3ccccc3)c(C(=O)OC)c(C(=O)OC)c2-c2ccccc2)c1-c1ccccc1
inactive: [13] 96 % of control | [15] 93 % of control | [16] 95 % of control

CC(C)N1C(C)(C)C1(C)C#N (stereo not given)
inactive: dose: 60.0 mg/kg/injection, schedule: Q01DX005 (ip), vehicle: saline 100 % of control | dose: 120.0 mg/kg/injection, schedule: Q01DX005 (ip), vehicle: saline 104 % of control

CNc1ccccc1C(=O)NNC(=O)Nc1ccccc1C(F)(F)F
inactive: [4] 98 % of control | [5] 100 % of control | [6] 111 % of control

CNC(=O)OCC1=C(COC(=O)NC)C2OC1C(C(=O)OC)=C2c1ccc(Cl)cc1 (stereo not given)
inactive: dose: 1.56 mg/kg/injection, schedule: Q01DX009 (ip), vehicle: distilled water + Tween-80 100 % of control | dose: 3.13 mg/kg/injection, schedule: Q01DX009 (ip), vehicle: distilled water + Tween-80 92 % of control | dose: 6.25 mg/kg/injection, schedule: Q01DX009 (ip), vehicle: distilled water + Tween-80 108 % of control | dose: 12.5 mg/kg/injection, schedule: Q01DX009 (ip), vehicle: distilled water + Tween-80 90 % of control and 94 % of control | dose: 25.0 mg/kg/injection, schedule: Q01DX009 (ip), vehicle: distilled water + Tween-80 88 % of control | dose: 50.0 mg/kg/injection, schedule: Q01DX009 (ip), vehicle: distilled water + Tween-80 88 % of control | dose: 100.0 mg/kg/injection, schedule: Q01DX009 (ip), vehicle: distilled water + Tween-80 88 % of control | dose: 200.0 mg/kg/injection, schedule: Q01DX009 (ip), vehicle: distilled water + Tween-80 101 % of control

NN(Cc1ccccc1[N+](=O)[O-])c1ccccc1
inactive: dose: 50.0 mg/kg/injection, schedule: Q01DX009 (ip), vehicle: saline with Tween-80 100 % of control | [14] 86 % of control | dose: 200.0 mg/kg/injection, schedule: Q01DX009 (ip), vehicle: saline with Tween-80 101 % of control

CS/C(=N\N=C(/C)c1ccccn1)N/N=C(\SC)N(C)c1ccccc1
inactive: [4] 108 % of control | [5] 104 % of control | [6] 110 % of control

COc1ccc2c(c1)OC1CC2NC(N)=N1 (stereo not given)
inactive: [7] 100 % of control | [8] 107 % of control | [9] 109 % of control
